# Measured values reported in patent publication US5195966A, “Treatment of mastitis and applicator therefor” (Diversey Limited, priority 1990, dated 1993).
# Key:
# [1] = bovine, in vivo
# Method: An experimental study was conducted to determine if any absorption occurs between quarters during a course of treatment with "Clorpactin WCS-90".
# The method used was to infuse two of the quarters of a healthy cow with a double normal strength course of treatment and to monitor each of the four quarters for "Clorpactin" residues, both during and after the trial. This with the assumption that if the material were being transferred between quarters by any mechanism it would be detected in the untreated quarters.
# Analysis of the milk samples from each quarter was by ion-pair reverse-phase chromatography.
# Calculation of the "Clorpactin" residues was by peak area with the milk used for the standards being prepared from milk obtained several days before treatment.
# Two of the quarters were each infused with a double normal dose of "Clorpactin WCS-90" (2×0.5 g in 40 mls of physiological saline) on six consecutive occasions following 6 milkings.
# The milk from all four quarters was monitored for residues both during and after the trial to determine if any transfer to untreated quarters had occurred.
# The first infusion occurred after Milking No. 1, with the consequence that Milking 1 represents the background.
# [2] = tested on: Staph. coagulase positive; assay: Clinical cure of mastitis, Staph. coagulase positive; type: in vivo, dairy cattle; details: 40 ml 1.25% w/v, 6 infusions at successive milkings
# Excerpt: (§1) Efficacy studies used half herds on a positive control and half herds on the experimental treatment. The protocol agreed was that herds were randomly split into two halves by number. Odd numbered cows received experimental treatment and even numbered cows received the positive control. Any animal sufficiently badly affected (i.e. systematically affected) should be the subject of a visit from a veterinary surgeon and was not included in the trial on either side.
# (§2) Milk samples of each infected quarter were sent to the MMB Laboratories for cell count and bacterial identification as follows:.
# (§3) A clinical cure is defined as the udder returning to normal function.
# (§4) 40 ml of 1.25% w/v solution of sodium oxychlorosene infused 6 times at 6 milkings.
# (§5) 1 full tube of 100 mg procaine penicillin/100 mg dihydro-streptomycin sulphate infused 6 times at 6 milkings. Five measurements can be made from the figures available:
# (§6) Odd numbered animals. Sodium oxychlorosene. 40 ml 1.25% w/v. 6 times at successive milkings.
# (§7) Procaine penicillin/Dihydrostreptomycin sulphate. 6 times at 6 milkings.
# mastitis = assay: Clinical efficacy in mastitis, overall and number of infusions to effect a clinical cure; type: in vivo, dairy cattle
# Excerpt: as §1, §2, §3, §4, §5
# (§8) (The variations in n, the number of determinations from which the mean cell count is calculated, are due to various factors, such as samples leaking in transit, faster decomposition of samples in hot weather, especially where no inhibitor substances are present (i.e. sodium oxychlorosene). Mean number of infusions to effect a clinical cure where a clinical cure is affected after up to 6 infusions.
# dairy cattle = details: bovine, in vivo
# E. coli [3] = assay: Clinical cure of mastitis, E. coli; type: in vivo, dairy cattle; details: of 4 cases; 40 ml 1.25% w/v, 6 infusions at successive milkings
# Excerpt: as §1, §2, §3, §4, §5, §6, §7
# [4] = tested on: starters Streptococcus thermophilus and Lactobacillus bulgarius; assay: Inhibitory effect on yoghurt starter cultures (lactic acid by titratable acidity); type: cell-based
# Method: The inhibitory effect of "Clorpactin" on starter cultures was also investigated: Raw whole milk was pasteurized and spiked with various concentrations of freshly prepared "Clorpactin". These samples were inoculated with the starters Streptococcus thermophilus and Lactobacillus bulgarius contained in natural yoghurt, incubated at 37°/5 hours and the percent lactic acid determined by titratable acidity (BSI, 1741:1963).
# Str. dysgalactiae = assay: Clinical cure of mastitis, Str. dysgalactiae; type: in vivo, dairy cattle; details: 40 ml 1.25% w/v, 6 infusions at successive milkings
# Excerpt: as §1, §2, §3, §4, §5, §6, §7
# St. faecalis = assay: Minimum inhibitory concentration against St. faecalis; type: cell-based; details: St. faecalis (intestinal flora)
# E. coli [5] = assay: Minimum inhibitory concentration against E. coli; type: cell-based; details: E. coli (intestinal flora)
# rats = assay: LD50 of Clorpactin WCS-90 in a milk vehicle by the oral route; type: in vivo; details: sterilized, γ-irradiated (2.5 megarads)
# [6] = in vivo
# Excerpt: The completed work, which takes the form of a series of individual studies, monitors the level of residues in milk from cows that were subjected to six infusions of a single normal strength "Clorpactin" dose (0.5 grams in 40 mls of physiological saline), both during infusion and for a series of milkings after the treatment was complete.
# Analysis of the milk samples from each cow was by ion-pair reverse-phase chromatography. Calculation of the "Clorpactin" residues was, in the case of Study 01, by the peak height method, as the milk used for the standards was obtained from a different source from the cows under test (consequent detection limit 7 ppm). In studies, 02, 03 and 04 as the standards were made in milk obtained from the cow under test a few days prior to treatment, the peak area method was used (detection limit 1 ppm). […] Treatments:
# Two mid-lactation cows (Fresian) were selected for the trial, with each being subjected to one course of treatment with the ""Clorpactin WCS-90". Treatments comprised six infusions, following six successive milkings, of "Clorpactin" at a single normal strength dose (0.5 gms per 40 mls of physiological saline)
# Two healthy mid-lactation cows (Fresian) were selected for this trial, with again each cow being subjected to a single course of treatment with "Clorpactin WCS-90" Study 02 differed from Study 01 in that a sample of the milk from the quarters under test was removed from the cow a few days prior to treatment, to enable accurate standards to be prepared.
# Three healthy mid-lactation cows (Fresian) were selected for the trial, with each being subjected to one course of treatment with the "Clorpactin WCS-90", to each of the four quarters of the animals.
# The milk from all four quarters was monitored for residues during and after treatment, with the standards being made up in milk obtained from the quarters a few days before the trial.
# Two mastitic cows, used in the efficacy study, were monitored for residues in the milk from a point where the milk appeared to be normal. It was not possible to evaluate the severely mastitic milk as no standards may be prepared to evaluate milk that is constantly changing in composition. The standards used in this case were made in milk obtained some 4 days after the last sample was taken.
# Means cited at the foot of the Table are calculated taking the <7 ppm and <1 ppm results as 7 and 1, respectively.
# Str. uberis = assay: Clinical cure of mastitis, Str. uberis; type: in vivo, dairy cattle; details: 40 ml 1.25% w/v, 6 infusions at successive milkings
# Excerpt: as §1, §2, §3, §4, §5, §6, §7
# Str. agalactiae = assay: Clinical cure of mastitis, Str. agalactiae; type: in vivo, dairy cattle; details: 40 ml 1.25% w/v, 6 infusions at successive milkings
# Excerpt: as §1, §2, §3, §4, §5, §6, §7
# [7] = tested on: somatic cell counts in milk; assay: Mean somatic cell counts in milk during and after completed treatments; type: in vivo, dairy cattle
# Excerpt: as §2
# Somatic cell counts in milk from individual quarters is an indication of the state of health of that quarter. The higher the cell count, the greater is the degree of infection or the irritant effect in the udder.
# The mean cell counts for all experimental milk samples submitted to the MMB are shown below. It is not always possible to obtain a cell count if the milk is obviously mastitic or if the sample deteriorates in transit. One problem with sodium oxychlorosene samples is that, due to lack of inhibitory effects, samples in transit may deteriorate quite rapidly. Samples containing antibiotic inhibitors are generally better protected from microbiological deterioration in transit. Some samples, when specifically needed for cell counts and not for causative organism assay, have been protected by the addition of formalin. This was carried out, for instance, when the irritancy studies were carried out.
# as §8
# [8] = cited from earlier work
substance,measurement,setting,value
sodium oxychlorosene,Clorpactin in the untreated quarters,[1],"No evidence of any ""Clorpactin"" was detected in the untreated quarters"
same,milking number by which level is clear,[1],≤ 8
same,transference to the untreated quarters,[1],no mechanism of transference
same,% Clinical Cures,[2]; 72 cases,90%
same,Clinical Cures,[2]; of 72 cases,65
same,clinical cure versus the conventional antibiotic,"mastitis; 1.25% w/v, 95% confidence level",superior to the conventional antibiotic
same,"significance (p) of mean number of infusions, Experimental vs Positive control","mastitis; 72 degrees of freedom, t = 3.098",< 0.01
same,Mean number of infusions to effect a clinical cure,"mastitis; clinical cure effected after up to 6 infusions, n = 70 (sodium oxychlorosene 1.25% w/v, On1 1.61), n = 30 (antibiotic, On1 1.10)",4.11
same,adverse effects,dairy cattle,No adverse effects were found
same,Clinical Cures,E. coli [3],3
same,percent lactic acid,"[4]; Clorpactin-spiked milk up to 0.01% (100 ppm), 37°/5 hours, control also about 0.9%",about 0.9 % lactic acid
same,effect on yoghurt starter culture activity,[4]; conclusion,no adverse affect on yoghurt starter culture activity
same,effect on lactic acid production,"[4]; levels of up to 0.01% (100 ppm) in pasteurized milk, 37°/5 hours",no effect on lactic acid production
same,% Clinical Cures,Str. dysgalactiae; 10 cases,70%
same,Clinical Cures,Str. dysgalactiae; of 10 cases,7
same,minimum inhibitory concentration,St. faecalis,approximately 2000 ppm
same,minimum inhibitory concentration,E. coli [5],approximately 2000 ppm
same,LD50,rats,> 5000 mg/kg
same,10× mean residue level after withdrawal period,[6],31 ppm
same,levels detected after treatment is complete,[6],quickly drops off to background
same,milking by which background has been achieved,[6],≤ 8
same,withdrawal after treatment supported by the data,[6],one milking withdrawal
same,% Clinical Cures,Str. uberis; 25 cases,76%
same,Clinical Cures,Str. uberis; of 25 cases,19
same,% Clinical Cures,Str. agalactiae; 51 cases,82%
same,Clinical Cures,Str. agalactiae; of 51 cases,41
same,Mean Cell Counts,[7]; day 0,6870
same,Mean Cell Counts,[7]; day 1,6092
same,Mean Cell Counts,[7]; day 2,4912
same,Mean Cell Counts,[7]; day 3,4845
same,Mean Cell Counts,[7]; day 4,3468
same,Mean Cell Counts,[7]; day 5,2018
same,Mean Cell Counts,[7]; day 12,1576
same,Mean Cell Counts,[7]; day 19,965
(mon)oxychlorosene,hydrolysis in water,[8]; after dissolving,hydrolyses rapidly
same,dissolution in water,[8],dissolves slowly in water
